According to patent US8202885B2, “Bridged six-membered ring compounds” (Actelion Pharmaceuticals Ltd., priority 2007, dated 2012):

Legend:
[1] = tested on: human Cav3.1 Cav3.2 or Cav3.3 channel; assay: In vitro assay T channel (FLIPR calcium fluorescence); assay type: cell-based; conditions: HEK293 cells expressing human Cav3.1, Cav3.2 or Cav3.3; 10 mM Ca2+-induced fluo-4 fluorescence; determined up to 10 μM; read-out: T channel antagonistic activity IC50
How it was run: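 HEK293 cells stably expressing human Cav3.1, Cav3.2 or Cav3.3 loaded with fluo-4 AM (3 μM), preincubated 3 min with antagonist, then stimulated with 10 mM Ca2+ in TEA-chloride/HEPES buffer pH 7.2. FLIPR fluorescence read every 2 s for 8 min; IC50 from peak area versus vehicle, tested up to 10 μM.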

human Cav1.2 channel = biological target: T1, human Cav1.2 channel (Homo sapiens, UniProt Q13936); assay: In vitro assay L channel (FLIPR calcium fluorescence); assay type: cell-based; conditions: HEK293 cells expressing human Cav1.2 with β-2a and α2δ-1; 20 mM KCl-induced fluo-4 fluorescence; determined up to 10 μM; read-out: L channel antagonistic activity (IC50)
T1 construct: expressed in transfected cells; host or cells: HEK293
Description: The L channel antagonistic activity (IC50 values) of the compounds of formula (I) is determined in accordance with the following experimental method.
Human embryonic kidney (HEK293) cells expressing the human Cav1.2 channel in addition to the auxiliary subunits β-2a and α2δ-1, are grown in culture medium (DMEM containing 10% heat-inactivated fetal calf serum (FCS), 100 U/ml penicillin, 100 μg/ml streptomycin, 100 μg/ml G418, 40 μg/ml zeocin and 100 μg/ml hygromycin). The cells are seeded at 20.000 cells/well into 384-well black clear bottom sterile plates (poly-L-lysine-coated, Becton Dickinson). The seeded plates are incubated overnight at 37° C. in 5% CO2. The KCl solution is prepared as 80 mM stock solution in assay buffer (HBSS containing 0.1% BSA, 20 mM HEPES, 0.375 g/l NaHCO3, adjusted to pH 7.4 with NaOH) for use in the assay at a final concentration of 20 mM. Antagonists are prepared as 10 mM stock solutions in DMSO, then diluted in 384 w plates first in DMSO, then in assay buffer to obtain 3× stocks. On the day of the assay, 25 μl of staining buffer (HBSS containing 20 mM HEPES, 0.375 g/l NaHCO3, and 3 μM of the fluorescent calcium indicator fluo-4 AM (1 mM stock solution in DMSO, containing 10% pluronic) is added to each well of the seeded plate. The 384-well cell-plates are incubated for 60 min at 37° C. in 5% CO2 followed by washing with 2×50 μl per well using assay buffer leaving 50 μl/well of this buffer for equilibration at room temperature (30-60 min). Within the Fluorescent Imaging Plate Reader (FLIPR, Molecular Devices), antagonists are added to the plate in a volume of 25 μl/well, incubated for 3 min and finally 25 μl/well of KCl solution is added for cellular depolarization. Fluorescence is measured for each well at 2 second intervals for 8 minutes, and the area under the curve of each fluorescence peak is compared to the area of the fluorescence peak induced by 20 mM KCl with vehicle in place of antagonist. […]

isolated mouse hearts = assay: Effect on isolated hearts according to the Langendorff method (Lgdff)
Description: Effect on Isolated Hearts According to the Langendorff Method (Lgdff)
The compounds were tested for their potential to reduce blood pressure and their effect on the contractility of the heart muscle. EC50 values on isolated mouse hearts were determined according to Literature (Doring H J., The isolated perfused heart according to Langendorff technique—function—application, Physiol. Bohemoslov. 1990, 39(6), 481-504; Kligfield P, Horner H, Brachfeld N., A model of graded ischemia in the isolated perfused rat heart, J. Appl. Physiol. 1976 June, 40(6), 1004-8).
51 example compounds have been measured using the procedure described above for the Langendorff experiment. The measured EC50 values were in the range of 4 to 669 nM with an average of 37 nM.

T1 sequence (Q13936 whole entry): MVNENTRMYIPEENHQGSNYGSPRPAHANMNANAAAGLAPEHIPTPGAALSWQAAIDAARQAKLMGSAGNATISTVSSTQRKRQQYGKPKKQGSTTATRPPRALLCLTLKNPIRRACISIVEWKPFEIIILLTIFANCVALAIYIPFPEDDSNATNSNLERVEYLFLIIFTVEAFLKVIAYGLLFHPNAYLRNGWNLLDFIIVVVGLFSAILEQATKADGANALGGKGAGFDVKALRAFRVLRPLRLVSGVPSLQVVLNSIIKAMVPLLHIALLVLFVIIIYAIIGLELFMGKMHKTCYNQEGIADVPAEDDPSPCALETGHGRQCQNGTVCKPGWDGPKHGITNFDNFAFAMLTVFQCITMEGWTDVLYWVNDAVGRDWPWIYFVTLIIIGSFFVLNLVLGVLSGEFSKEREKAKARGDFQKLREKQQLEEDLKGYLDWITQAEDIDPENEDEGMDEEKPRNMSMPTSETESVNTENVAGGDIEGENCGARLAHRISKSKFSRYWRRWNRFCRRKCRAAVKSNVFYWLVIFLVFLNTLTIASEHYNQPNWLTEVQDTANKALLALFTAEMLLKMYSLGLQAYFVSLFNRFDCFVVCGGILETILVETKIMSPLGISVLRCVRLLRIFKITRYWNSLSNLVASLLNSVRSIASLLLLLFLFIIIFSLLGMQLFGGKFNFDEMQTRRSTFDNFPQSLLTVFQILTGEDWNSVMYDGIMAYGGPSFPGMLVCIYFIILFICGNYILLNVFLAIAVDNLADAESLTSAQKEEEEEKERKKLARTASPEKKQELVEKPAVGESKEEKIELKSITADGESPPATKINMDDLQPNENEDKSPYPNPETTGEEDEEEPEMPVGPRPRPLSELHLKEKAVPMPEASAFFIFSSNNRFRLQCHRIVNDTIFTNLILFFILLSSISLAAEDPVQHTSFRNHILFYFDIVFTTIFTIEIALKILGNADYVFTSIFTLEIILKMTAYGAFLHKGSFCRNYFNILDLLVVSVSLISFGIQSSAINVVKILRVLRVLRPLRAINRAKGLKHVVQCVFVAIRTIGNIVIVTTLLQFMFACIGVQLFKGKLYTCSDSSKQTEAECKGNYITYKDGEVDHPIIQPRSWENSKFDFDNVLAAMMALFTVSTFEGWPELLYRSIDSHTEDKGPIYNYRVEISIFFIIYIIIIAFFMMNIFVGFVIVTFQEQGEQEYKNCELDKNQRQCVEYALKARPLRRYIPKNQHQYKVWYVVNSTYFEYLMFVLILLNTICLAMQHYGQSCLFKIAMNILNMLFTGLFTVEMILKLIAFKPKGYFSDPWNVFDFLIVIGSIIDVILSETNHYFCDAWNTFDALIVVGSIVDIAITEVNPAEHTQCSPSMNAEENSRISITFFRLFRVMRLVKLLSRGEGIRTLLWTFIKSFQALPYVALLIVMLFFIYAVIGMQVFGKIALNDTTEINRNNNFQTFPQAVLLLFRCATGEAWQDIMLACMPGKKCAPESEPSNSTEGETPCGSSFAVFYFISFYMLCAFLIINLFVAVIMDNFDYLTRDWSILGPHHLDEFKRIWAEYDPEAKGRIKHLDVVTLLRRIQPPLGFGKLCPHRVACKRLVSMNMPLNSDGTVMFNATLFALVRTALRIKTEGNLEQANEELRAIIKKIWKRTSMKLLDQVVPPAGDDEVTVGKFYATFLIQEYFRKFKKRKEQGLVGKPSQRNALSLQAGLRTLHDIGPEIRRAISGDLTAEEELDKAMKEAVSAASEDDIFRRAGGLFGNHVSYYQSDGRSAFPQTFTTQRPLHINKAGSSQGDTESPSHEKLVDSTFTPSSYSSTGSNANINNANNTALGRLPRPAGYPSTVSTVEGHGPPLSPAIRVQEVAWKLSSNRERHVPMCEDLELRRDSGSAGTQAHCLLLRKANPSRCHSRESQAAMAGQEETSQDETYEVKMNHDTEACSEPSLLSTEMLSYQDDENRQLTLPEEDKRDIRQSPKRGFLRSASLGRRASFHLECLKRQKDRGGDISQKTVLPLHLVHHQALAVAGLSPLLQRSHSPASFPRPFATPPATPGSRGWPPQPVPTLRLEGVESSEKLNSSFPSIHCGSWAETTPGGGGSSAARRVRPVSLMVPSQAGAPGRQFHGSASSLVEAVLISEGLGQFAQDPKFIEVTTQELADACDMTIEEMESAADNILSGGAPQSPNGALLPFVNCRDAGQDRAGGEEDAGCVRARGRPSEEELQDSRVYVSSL

SMILES	IC50 [1] [µM]	IC50 (human Cav1.2 channel) [µM]	EC50 (isolated mouse hearts) [µM]
CN(CCCc1nc2ccccc2[nH]1)CC[C@]1(O)C[C@H]2CC[C@@H]1C=C2c1ncco1 (racemic) [Example 25, rac-(1R*,2R*,4R*)-2-(2-{[3-(1H-Benzoimidazol-2-yl)-propyl]-methyl-amino}-ethyl)-5-oxazol-2-yl-bicyclo[2.2.2]oct-5-en-2-ol]	> 10	> 10	–
CC(C)C(=O)O[C@@]1(CCN(C)CCCc2nc3ccccc3[nH]2)C[C@H]2CC[C@@H]1C=C2c1ccc2ccccc2c1 (racemic) [Example 10A, rac-Isobutyric acid (1R*,2R*,4R*)-2-(2-{[3-(1H-benzoimidazol-2-yl)-propyl]-methyl-amino}-ethyl)-5-naphthalen-2-yl-bicyclo[2.2.2]oct-5-en-2-yl ester]	> 10	> 10	0.013
CN(CCCc1nc2ccccc2[nH]1)CC[C@]1(O)C[C@@H]2C=C[C@H]1CC2 (racemic) [Example 75, rac-(1R*,2R*,4R*)-2-(2-{[3-(1H-Benzoimidazol-2-yl)-propyl]-methyl-amino}-ethyl)-bicyclo[2.2.2]oct-5-en-2-ol]	> 10	> 10	–
COc1cccc(C2=C[C@H]3CC[C@@H]2C[C@]3(CCN(C)CCCc2nc3ccccc3[nH]2)OC(=O)C(C)C)c1 (relative stereo) [Example 2A, rac-Isobutyric acid (1R*,2R*,4R*)-2-(2-{[3-(1H-benzoimidazol-2-yl)-propyl]-methyl-amino}-ethyl)-5-(3-methoxy-phenyl)-bicyclo[2.2.2]oct-5-en-2-yl ester]	2.31	–	0.015
COc1ccc(OC)c2[nH]c(CCCN(C)CC[C@]3(OC(=O)C(C)C)C[C@H]4CC[C@@H]3C=C4c3ccccc3)nc12 (relative stereo) [Example 61A, rac-Isobutyric acid (1R*,2R*,4R*)-2-(2-{[3-(4,7-dimethoxy-1H-benzoimidazol-2-yl)-propyl]-methyl-amino}-ethyl)-5-phenyl-bicyclo[2.2.2]oct-5-en-2-yl ester]	0.571	–	0.005
CC1=C(c2ccccc2)[C@H]2CC[C@@H]1C[C@]2(CCN(C)CCCc1nc2ccccc2[nH]1)OC(=O)C(C)C (relative stereo) [Example 17A, rac-Isobutyric acid (1R*,2R*,4R*)-2-(2-{[3-(1H-benzoimidazol-2-yl)-propyl]-methyl-amino}-ethyl)-5-methyl-6-phenyl-bicyclo[2.2.2]oct-5-en-2-yl ester]	1.37	–	0.012
COc1cccc2[nH]c(CCCN(C)CC[C@]3(OC(=O)CC(F)(F)F)C[C@H]4CC[C@@H]3C=C4c3ccccc3)nc12 (relative stereo) [Example 26C, rac-3,3,3-Trifluoro-propionic acid (1R*,2R*,4R*)-2-(2-{[3-(4-methoxy-1H-benzoimidazol-2-yl)-propyl]-methyl-amino}-ethyl)-5-phenyl-bicyclo[2.2.2]oct-5-en-2-yl ester]	4.64	–	0.004
CC(C)C(=O)O[C@@]1(CCN(C)CCCc2nc3ccccc3[nH]2)C[C@H]2CC[C@@H]1C=C2c1cccs1 (relative stereo) [Example 21A, rac-Isobutyric acid (1R*,2R*,4R*)-2-(2-{[3-(1H-benzoimidazol-2-yl)-propyl]-methyl-amino}-ethyl)-5-thiophen-2-yl-bicyclo[2.2.2]oct-5-en-2-yl ester]	2.42	–	0.01
CC(C)C(=O)O[C@@]1(CCN(C)CCCc2cccnc2)C[C@H]2CC[C@@H]1C=C2c1ccccc1 (relative stereo) [Example 46A, rac-Isobutyric acid (1R*,2R*,4R*)-2-{2-[methyl-(3-pyridin-3-yl-propyl)-amino]-ethyl}-5-phenyl-bicyclo[2.2.2]oct-5-en-2-yl ester]	2.56	–	0.009
COc1cc(C)c2[nH]c(CCCN(C)CC[C@]3(OC(=O)C(C)C)C[C@H]4CC[C@@H]3C=C4c3ccccc3)nc2c1OC (relative stereo) [Example 64A, rac-Isobutyric acid (1R*,2R*,4R*)-2-(2-{[3-(4,5-dimethoxy-7-methyl-1H-benzoimidazol-2-yl)-propyl]-methyl-amino}-ethyl)-5-phenyl-bicyclo[2.2.2]oct-5-en-2-yl ester]	0.914	–	–
COCC(C)(COC)C(=O)NCCCN(C)CC[C@]1(O)C[C@H]2CC[C@@H]1C=C2c1ccccc1 (relative stereo) [Example 43, rac-N-(3-{[2-((1R*,2R*,4R*)-2-Hydroxy-5-phenyl-bicyclo[2.2.2]oct-5-en-2-yl)-ethyl]-methyl-amino}-propyl)-3-methoxy-2-methoxymethyl-2-methyl-propionamide]	> 10	–	–
CN(CCCc1nc2ccccc2[nH]1)CCC1(O)CC2CCC1C=C2c1ccccc1 (single isomer, unassigned) [Example 12, (1R,2R,4R)-2-(2-{[3-(1H-Benzoimidazol-2-yl)-propyl]-methyl-amino}-ethyl)-5-phenyl-bicyclo[2.2.2]oct-5-en-2-ol or (1S,2S,4S)-2-(2-{[3-(1H-benzoimidazol-2-yl)-propyl]-methyl-amino}-ethyl)-5-phenyl-bicyclo[2.2.2]oct-5-en-2-ol]	> 10	–	–
CC(C)C(=O)O[C@@]1(CCN(C)CCCc2ccnc3ccccc23)C[C@H]2CC[C@@H]1C=C2c1ccccc1 (relative stereo) [Example 50A, rac-Isobutyric acid (1R*,2R*,4R*)-2-{2-[methyl-(3-quinolin-4-yl-propyl)-amino]-ethyl}-5-phenyl-bicyclo[2.2.2]oct-5-en-2-yl ester]	> 10	–	–
COC(C)(C)C(=O)NCCCN(C)CC[C@]1(OC(=O)C(C)C)C[C@H]2CC[C@@H]1C=C2c1ccccc1 (relative stereo) [Example 44A, rac-Isobutyric acid (1R*,2R*,4R*)-2-(2-{[3-(2-methoxy-2-methyl-propionylamino)-propyl]-methyl-amino}-ethyl)-5-phenyl-bicyclo[2.2.2]oct-5-en-2-yl ester]	> 10	–	–
COc1cccc2[nH]c(CCCN(C)CC[C@]3(OC(=O)C(C)(C)OC)C[C@H]4CC[C@@H]3C=C4c3ccccc3)nc12 (relative stereo) [Example 26F, rac-2-Methoxy-2-methyl-propionic acid (1R*,2R*,4R*)-2-(2-{[3-(4-methoxy-1H-benzoimidazol-2-yl)-propyl]-methyl-amino}-ethyl)-5-phenyl-bicyclo[2.2.2]oct-5-en-2-yl ester]	0.951	–	–
CN(CCCc1nc2ccccc2[nH]1)CC[C@@]1(O)C[C@@H]2CC[C@H]1CN2c1ccccc1 [Example 74, (1S,4S,5R)-5-(2-{[3-(1H-Benzoimidazol-2-yl)-propyl]-methyl-amino}-ethyl)-2-phenyl-2-aza-bicyclo[2.2.2]octan-5-ol]	6.07	–	–
